Laboratory results as given in ChEMBL document CHEMBL3832553, “DailyMed|setid=be8e0025-5726-4965-9510-e7e657687d23 | AVELOX - moxifloxacin hydrochloride tablet, coated|Lake Erie Medical Supply DBA Quality Care Products LLC”.
Where “and” joins values, the source holds several entries; their conditions need not be identical. Equal values may be shown once.

Legend:
Type in all cases: ADME, organism-based
[1] = (§1) Pharmacokinetic parameters for Moxifloxacin hydrochloride following single oral or intravenous administration of 400 mg Moxifloxacin to healthy or patient male and/or female; design: dose 400 mg, route iv, route oral; settings: human, in vivo, 400 mg, dosed compound id 1, dosed compound name MOXIFLOXACIN, regimen Single dose, tissue Plasma
Homo sapiens [2] = test: as §1; design: dose 400 mg, route iv, route oral; settings: in vivo, dosed compound id 1, dosed compound name MOXIFLOXACIN, regimen Single dose, study dosing duration 1 hr, tissue Plasma; for Cmax: po
[3] = (§2) Pharmacokinetic parameters for Moxifloxacin hydrochloride following multiple oral administration of 400 mg Moxifloxacin to male Japanese or Caucasian healthy or patient male and/or female; design: dose 400 mg, route iv, route oral; settings: human, in vivo, 400 mg, dosed compound id 1, dosed compound name MOXIFLOXACIN, regimen Multiple dose, tissue Plasma
Homo sapiens [4] = test: as §2; design: dose 400 mg, route iv, route oral; settings: in vivo, dosed compound id 1, dosed compound name MOXIFLOXACIN, regimen Multiple dose, tissue Plasma
[5] = Pharmacokinetic parameters for Moxifloxacin hydrochloride following oral administration of Moxifloxacin.; settings: human, in vivo, dosed compound id 1, dosed compound name MOXIFLOXACIN, tissue Plasma

Question: With `COc1c(N2C[C@@H]3CCCN[C@@H]3C2)c(F)cc2c(=O)c(C(=O)O)cn(C3CC3)c12.Cl` [MOXIFLOXACIN HYDROCHLORIDE] as the molecule, how does the AUC [1] read?
Answer: Its AUC is 36100 ng·h/mL.

Question: What about the Cmax ([1]; po) of the same molecule?
Answer: Its Cmax is 3100 ng/mL.

Question: What about the AUC (Homo sapiens [2]; gender young male and female) of the same molecule?
Answer: Its AUC is 39300 ng·h/mL.

Question: What about the Cmax (Homo sapiens [2]; gender female) of the same molecule?
Answer: The Cmax was 4500 ng/mL.

Question: What about the Cmax (Homo sapiens [2]; gender male and female) of the same molecule?
Answer: The Cmax was 4300 ng/mL.

Question: What about the Cmax (Homo sapiens [2]; gender male) of the same molecule?
Answer: The Cmax was 4400 ng/mL.

Question: And the Cmax (Homo sapiens [2]; gender young male and female)?
Answer: Its Cmax is 3900 ng/mL.

Question: What about the AUC ([3]; gender young male and female, read-out: AUC) of the same molecule?
Answer: Its AUC is 48000 ng·h/mL.

Question: What about the Cmax ([3]; gender young male and female, read-out: Cmax) of the same molecule?
Answer: The Cmax was 4500 ng/mL.

Question: What about the AUC ([3]; read-out: AUC(0-24)) of the same molecule?
Answer: Its AUC is 47000 ng·h/mL.

Question: And the Cmax ([3]; read-out: Cmax ss)?
Answer: The Cmax was 4100 ng/mL.

Question: What about the Cmax (Homo sapiens [4]; gender elderly male amd female, study dosing duration 1 hr) of the same molecule?
Answer: The Cmax was 6100 ng/mL.

Question: And the AUC (Homo sapiens [4]; gender elderly male)?
Answer: Its AUC is 51800 ng·h/mL.

Question: What about the Cmax (Homo sapiens [4]; gender elderly male) of the same molecule?
Answer: The Cmax was 3800 ng/mL.

Question: And the Cmax (Homo sapiens [4]; gender female, study dosing duration 1 hr)?
Answer: The Cmax was 4600 ng/mL.

Question: What about the Cmax (Homo sapiens [4]; gender male and female, study dosing duration 1 hr) of the same molecule?
Answer: Its Cmax is 4100 ng/mL and 4700 ng/mL.

Question: What about the AUC (Homo sapiens [4]; gender young female) of the same molecule?
Answer: The AUC was 49300 ng·h/mL.

Question: What about the Cmax (Homo sapiens [4]; gender young female) of the same molecule?
Answer: The Cmax was 4200 ng/mL.

Question: What about the AUC (Homo sapiens [4]; gender young male, study dosing duration 1 hr) of the same molecule?
Answer: Its AUC is 38000 ng·h/mL.

Question: And the AUC (Homo sapiens [4]; gender young male)?
Answer: Its AUC is 48200 ng·h/mL.

Question: And the Cmax (Homo sapiens [4]; gender young male)?
Answer: The Cmax was 3600 ng/mL.

Question: What about the “AUC(0-24)” value (Homo sapiens [4]) of the same molecule?
Answer: Its value is 47000 ng·h/mL.

Question: What about the bioavailability [5] of the same molecule?
Answer: Its bioavailability is 90%.
